# Target: T1, Hel a 6 (Helianthus annuus, UniProt A0A251RNJ1)
# T1 construct: gene PLY2; natural protein purified from sunflower pollen
# T1 sequence (A0A251RNJ1 23-394): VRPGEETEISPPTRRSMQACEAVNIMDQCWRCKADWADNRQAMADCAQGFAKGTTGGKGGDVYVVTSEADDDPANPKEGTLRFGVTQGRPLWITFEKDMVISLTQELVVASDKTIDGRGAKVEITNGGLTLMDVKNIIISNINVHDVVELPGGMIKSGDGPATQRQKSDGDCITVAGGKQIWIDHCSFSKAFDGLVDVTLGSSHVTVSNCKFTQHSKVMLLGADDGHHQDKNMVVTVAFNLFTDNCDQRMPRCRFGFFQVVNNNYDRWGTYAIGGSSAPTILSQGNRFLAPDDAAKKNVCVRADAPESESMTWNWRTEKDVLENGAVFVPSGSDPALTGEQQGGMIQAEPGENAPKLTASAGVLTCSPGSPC
# Experiment: pectate lyase assay, A235 increase
# Type: biochemical
# Details: 10 mM salicylic acid; 0.2% polygalacturonic acid, 0.2 mM CaCl2, 25 mM Tris-HCl pH 8.0, 37 °C (methods; results say 40 °C)
structure (smiles),measurement,value
O=C(O)c1ccccc1O [salicylic acid],"pectate lyase assay, A235 increase",the enzyme activity was ceased entirely when salicylic acid was added to the reaction mix
